Paper PMC3411462, “Long-acting κ opioid antagonists nor-BNI, GNTI and JDTic: pharmacokinetics in mice and lipophilicity” (BMC Pharmacology, 2012)
“And” between values parts separate entries of the source, which are not always exact repeats. Identical values can stand only once. Like-named read-outs stand apart in the source and are kept apart here.

Key:
[1] = Plasma binding (unbound fraction by ultracentrifugation); assay type: in vitro ADME; settings: 5 μM drug, mean, n = 3
Description: Unbound fractions in brain homogenate and plasma were determined by ultracentrifugation as described previously. Briefly, drug-spiked matrices (5 μM drug in plasma or brain homogenate) were centrifuged at 600,000 g for 5 h at 37 °C (plasma) or 5 °C (brain). Aliquots of the middle (water) layer were added to an equal volume of blank matrix and extracted with 5 volumes of acetonitrile containing internal standard. Aliquots of the original spiked matrix were mixed with an equal volume of blank matrix and 2 volumes of plasma ultrafiltrate (plasma) or phosphate-buffered saline (tissue) and extracted with 10 volumes of acetonitrile. Extracts were centrifuged and analyzed by LC-MS-MS. Fraction unbound was calculated from the ratio of concentration in the water layer to that in the original spiked matrix, corrected for dilution as described previously.

[2] = Brain and plasma concentrations in mice after intraperitoneal administration (LC-MS-MS), non-compartmental analysis; assay type: in vivo; settings: for [drug],brain (free base equivalent) / [drug],plasma (free base equivalent): listed as nor-BNI.2HCl.H2O; for [drug],brain (free base equivalent) / [drug],plasma (free base equivalent) / AUC(0-inf) / concentration at 0.5 h / concentration at 1 h / concentration at 2 h: 10 mg/kg
Description: Doses are reported by weight of the specified salt. […] Body mass was measured to ±0.1 g.
Mice were sacrificed by cervical dislocation, then decapitated for collection of brain and blood samples. Trunk blood was collected in 1.5 mL polypropylene micro-centrifuge tubes, shaken with a few crystals of EDTA and cooled in ice-water. Samples were centrifuged at 14,000 rpm (revolutions per minute) for 15 minutes at 3 °C, then stored in glass sample vials at −20 °C until analysis. Brains were removed and immersed for 30 seconds in 2-methylbutane over dry ice, then stored in polypropylene tubes at −20 °C until sample preparation. Sample tubes were thawed in ice-water, distilled water was added (2:1 by weight) and the brain homogenized with a probe sonicator for 3 minutes over ice-water (Fisher Sonic Dismembrator 300 at 35% power). The probe was rinsed with ethanol and distilled water between samples. Brain homogenate was stored in glass sample vials at −20 °C until analysis by LC-MS-MS.
Drug concentrations (ng mL^-1) refer to the free base, and were measured by liquid chromatography-tandem mass spectrometry (LC-MS-MS) as described previously. Briefly, samples were shaken with 3 volumes of methanol and centrifuged at 3000 g. Aliquots of the supernatants were diluted with 5 volumes of water containing an appropriate internal standard. Extracts from in vitro and in vivo experiments were analyzed by multiple reaction monitoring on an API3000 or API4000 LC-MS-MS system with electrospray ion source, controlled and analyzed using the Analyst software package (Applied Biosystems, Foster City, CA). Chromatography was conducted on a Sprite Armor C18 analytical column (20 × 2.1 mm, 10 μm particle size, Analytical Sales and Products, Pompton Plains, NJ) with a 0.5 μm PEEK guard filter. Compounds were eluted with a gradient from 2% to 95% acetonitrile in water, both containing 0.1% formic acid. Compounds were detected in positive ion mode, tuned to the mass transition with the largest intensity. Analyte concentrations were determined by comparison of analyte:internal standard peak area ratios to those of standards prepared in the appropriate matrices.
For calculation of mean concentrations, the earliest values below the MRC were substituted by MRC ÷ 2, as recommended elswhere. Pharmacokinetic parameters were calculated from mean concentrations using PKSolver, employing non-compartmental analysis for extravascular administration. Curves in figures were fitted using Origin 8.5 (OriginLab, Northampton, MA) using 2-compartment models. Confidence intervals and two-tailed p values (unpaired t test) were calculated using Graphpad Quickcalcs. One outlier was identified using Grubbs' test (p < 0.01) and excluded from the analysis; see Additional file 1.

[3] = 0.5 h, 10 mg/kg i.p., individual mice
[4] = 1 h, 10 mg/kg i.p., individual mice
[5] = 2 h, 10 mg/kg i.p., individual mice
[6] = male, Swiss-Webster, mouse, ip, brain NCA, 10 mg/kg i.p.

**Q.** With `Oc1ccc2c3c1O[C@H]1c4[nH]c5c(c4C[C@@]4(O)[C@@H](C2)N(CC2CC2)CC[C@]314)C[C@@]1(O)[C@H]2Cc3ccc(O)c4c3[C@@]1(CCN2CC1CC1)[C@H]5O4` [nor-BNI, norbinaltorphimine] as the compound, how does the fraction unbound at 5 h, 5 μM [1] read?
**A.** 0.51

**Q.** And the “Time of maximal mean plasma level” value ([2]; 10 mg kg^-1 i.p., mice)?
**A.** 30 min

**Q.** And the “[drug],brain (free base equivalent)” value [2, 3]?
**A.** 477 ng/g and 471 ng/g and 309 ng/g and 609 ng/g and 438 ng/g

**Q.** What about the “[drug],plasma (free base equivalent)” value [2, 3] of the same compound?
**A.** 6130 ng/mL and 4810 ng/mL and 2110 ng/mL and 3050 ng/mL

**Q.** What about the “[drug],brain (free base equivalent)” value [2, 4] of the same compound?
**A.** 250 ng/g and 396 ng/g and 299 ng/g and 372 ng/g and 207 ng/g

**Q.** And the “[drug],plasma (free base equivalent)” value [2, 4]?
**A.** 3060 ng/mL and 2060 ng/mL and 1510 ng/mL and 1140 ng/mL and 1170 ng/mL

**Q.** And the “[drug],brain (free base equivalent)” value [2, 5]?
**A.** <120 ng/g

**Q.** And the “[drug],plasma (free base equivalent)” value [2, 5]?
**A.** 343 ng/mL and 309 ng/mL

**Q.** And the “[drug],plasma (free base equivalent)” value ([2]; 4 h, 10 mg/kg i.p., individual mice)?
**A.** 173 ng/mL and 156 ng/mL

**Q.** What about the “[drug],plasma (free base equivalent)” value ([2]; 24 h, 10 mg/kg i.p., individual mice) of the same compound?
**A.** 63 ng/mL and 50 ng/mL and 14 ng/mL

**Q.** What about the “Peak unbound brain level” value ([2]; at 30 minutes, 10 mg kg^-1 i.p., estimate) of the same compound?
**A.** ≤ 26 nM

**Q.** And the “AUMC 0-inf_obs” value ([2]; brain NCA, 10 mg/kg i.p.)?
**A.** 712.925 ng/ml*h^2

**Q.** And the Tlag ([2]; brain NCA, 10 mg/kg i.p.)?
**A.** 0 h

**Q.** What about the “C max,brain” value ([2]; brain, 10 mg kg^-1 i.p., mice) of the same compound?
**A.** 443 ng/mL

**Q.** What about the AUC(0-inf) ([2]; male, Swiss-Webster (Crl:CFW(SW)), mouse, brain, ip, brain NCA, 10 mg/kg i.p., read-out: AUC 0-inf_obs) of the same compound?
**A.** 593 ng·h/mL

**Q.** What about the Kp uu ([2]; male, Swiss-Webster (Crl:CFW(SW)), mouse, brain/plasma (unbound), ip, supplement, 10 mg/kg i.p., read-out: Kp,uu,brain (AUC0–∞,brain,u / AUC0–∞,p,u)) of the same compound?
**A.** < 0.00725

**Q.** What about the Kp ([2]; male, Swiss-Webster (Crl:CFW(SW)), mouse, brain/plasma, ip, supplement, 10 mg/kg i.p., read-out: Kp,brain (AUC0–∞,brain / AUC0–∞,p)) of the same compound?
**A.** 0.0924

**Q.** And the MRT inf ([2]; male, Swiss-Webster (Crl:CFW(SW)), mouse, ip, brain NCA, 10 mg/kg i.p., read-out: MRT 0-inf_obs)?
**A.** 72.1 min

**Q.** What about the Kp uu ([2]; male, Swiss-Webster, mouse, brain and plasma (unbound), ip, 10 mg kg^-1 i.p., mice, read-out: Cmax,brain,u/Cmax,p,u) of the same compound?
**A.** < 0.009

**Q.** And the Kp uu ([2]; male, Swiss-Webster, mouse, brain and plasma (unbound), ip, 10 mg kg^-1 i.p., mice, read-out: K p,uu,brain (AUC0–∞,brain,u/AUC0–∞,p,u))?
**A.** < 0.007

**Q.** What about the Kp ([2]; male, Swiss-Webster, mouse, brain and plasma, ip, 10 mg kg^-1 i.p., mice, read-out: Cmax,brain/Cmax,p) of the same compound?
**A.** 0.11

**Q.** What about the Kp ([2]; male, Swiss-Webster, mouse, brain and plasma, ip, 10 mg kg^-1 i.p., mice, read-out: K p,brain (AUC0–∞,brain/AUC0–∞,p)) of the same compound?
**A.** 0.09

**Q.** What about the concentration at 0.5 h ([2]; male, Swiss-Webster, mouse, brain, intraperitoneal, 0.5 h, read-out: Conc (brain, NCA input)) of the same compound?
**A.** 443 ng/mL

**Q.** And the concentration at 1 h ([2]; male, Swiss-Webster, mouse, brain, intraperitoneal, 1 h, read-out: Conc (brain, NCA input))?
**A.** 308 ng/mL

**Q.** What about the concentration at 2 h ([2]; male, Swiss-Webster, mouse, brain, intraperitoneal, 2 h, read-out: Conc (brain, NCA input)) of the same compound?
**A.** 96.3 ng/mL

**Q.** What about the concentration at 0.5 h ([2]; male, Swiss-Webster, mouse, brain, ip, 0.5 h, 10 mg/kg i.p., individual mice, read-out: [drug],brain (free base equivalent)) of the same compound?
**A.** 354 ng/g

**Q.** What about the concentration at 0.5 h ([2]; male, Swiss-Webster, mouse, brain, ip, 0.5 h, 10 mg/kg i.p., read-out: mean (brain)) of the same compound?
**A.** 443 ng/g

**Q.** What about the concentration at 1 h ([2]; male, Swiss-Webster, mouse, brain, ip, 1 h, 10 mg/kg i.p., individual mice, read-out: [drug],brain (free base equivalent)) of the same compound?
**A.** 324 ng/g

**Q.** And the concentration at 1 h ([2]; male, Swiss-Webster, mouse, brain, ip, 1 h, 10 mg/kg i.p., read-out: mean (brain))?
**A.** 308 ng/g

**Q.** What about the concentration at 2 h ([2]; male, Swiss-Webster, mouse, brain, ip, 2 h, 10 mg/kg i.p., individual mice, read-out: [drug],brain (free base equivalent)) of the same compound?
**A.** 169 ng/g

**Q.** What about the concentration at 2 h ([2]; male, Swiss-Webster, mouse, brain, ip, 2 h, 10 mg/kg i.p., <MRC substituted by MRC/2, read-out: mean (brain)) of the same compound?
**A.** 96 ng/g

**Q.** What about the AUC(0-inf) ([2]; male, Swiss-Webster, mouse, brain, ip, brain, 10 mg kg^-1 i.p., non-compartmental analysis, read-out: AUC 0–∞,brain) of the same compound?
**A.** 593 ng·h/mL

**Q.** What about the Tmax ([2]; male, Swiss-Webster, mouse, in vivo, ip, ·2HCl salts, 10 mg kg^-1 i.p., mice) of the same compound?
**A.** 30 min

**Q.** And the AUC(0-t) [2, 6]?
**A.** 501 ng·h/mL

**Q.** What about the Tmax [2, 6] of the same compound?
**A.** 30 min

**Q.** And the Cmax ([2]; male, Swiss-Webster, mouse, ip, brain NCA, 10 mg/kg i.p., read-out: Cmax)?
**A.** 443 ng/mL

**Q.** What about the k el ([2]; male, Swiss-Webster, mouse, ip, brain NCA, 10 mg/kg i.p., read-out: Lambda_z (converted)) of the same compound?
**A.** 0.000288 s⁻¹
